Results taken from ChEMBL document CHEMBL5214960 (J Med Chem, 2022).
Changes are numbered by the printed parent chain. ≈ marks a conversion by molar mass, not a printed value. Values belong to the compound of their own block, whether it stands above or below them.

Tests used:
CYP2D6 = CYP2D6 (Homo sapiens, UniProt P10635); experiment: Inhibition of human hepatic CYP2D6 using bufuralol HCL as substrate measured after 3 mins by LC-MS analysis relative to control; type: ADME, tissue-based; parameters: concentration or dose not given beside the values; details: human hepatic CYP2D6 (liver), probe bufuralol HCl
[1] = Plasma protein binding in mouse assessed as unbound fraction measured after 4.5 hrs by LC-MS/MS analysis; type: ADME, cell-free
CYP3A4 = CYP3A4 (Homo sapiens, UniProt P08684); experiment: Inhibition of human hepatic CYP3A4 using midazolam as substrate measured after 3 mins by LC-MS analysis relative to control; type: ADME, tissue-based; parameters: concentration or dose not given beside the values; details: human hepatic CYP3A4 (liver), probe midazolam
CYP2C9 = CYP2C9 (Homo sapiens, UniProt P11712); experiment: Inhibition of human hepatic CYP2C9 using diclofenac as substrate measured after 10 mins by LC-MS analysis relative to control; type: ADME, tissue-based; parameters: concentration or dose not given beside the values; details: human hepatic CYP2C9 (liver), probe diclofenac
[2] = Aqueous solubility of compound at pH 6 by HPLC analysis; type: physicochemical; details: buffer
[3] = Metabolic stability in human hepatic microsome at 4 uM measured after 30 mins by LC-MS analysis; type: ADME; details: liver microsomes, read-out: Stability
[4] = Metabolic stability in mouse hepatic microsome at 4 uM measured after 30 mins by LC-MS analysis; type: ADME; details: liver microsomes, read-out: Stability
[5] = Metabolic stability in dog hepatic microsome at 4 uM measured after 30 mins by LC-MS analysis; type: ADME, Canis lupus familiaris; details: liver microsomes, read-out: Stability
[6] = AUC(0 to 12 hrs) in Sprague-Dawley rat plasma at 30 mg/kg, po measured after 24 hrs by LC-MS/MS analysis; type: ADME, organism-based; parameters: time 24 hrs, dose 30 mg/kg, route po; details: in vivo
[7] = Cmax in Sprague-Dawley rat plasma at 30 mg/kg, po measured after 24 hrs by LC-MS/MS analysis; type: ADME, organism-based; parameters: time 24 hrs, dose 30 mg/kg, route po; details: in vivo
[8] = Half life in Sprague-Dawley rat plasma at 30 mg/kg, po measured after 24 hrs by LC-MS/MS analysis; type: ADME, organism-based; details: in vivo
[9] = Unbound Cmax in plasma of Sprague-Dawley rat at 30 mg/kg, po measured after 24 hrs by LC-MS/MS analysis; type: ADME, organism-based; details: in vivo
[10] = Cmax in CD-1 mouse plasma at 10 mg/kg, po measured after 8 hrs by LC-MS/MS analysis; type: ADME, organism-based; parameters: dose 10 mg/kg, time 8 hrs, route po; details: mouse, in vivo, 8 h
[11] = Inhibition of PTP-Meg2 (unknown origin); parameters: species or system Homo sapiens
[12] = biological target: T1, Low molecular weight phosphotyrosine protein phosphatase (Mus musculus, UniProt Q9D358); experiment: Inhibition of N-terminal His-tagged full length mouse LMW-PTP expressed in Escherichia coli BL21(DE3) by […] analysis
T1 sequence (Q9D358 whole entry): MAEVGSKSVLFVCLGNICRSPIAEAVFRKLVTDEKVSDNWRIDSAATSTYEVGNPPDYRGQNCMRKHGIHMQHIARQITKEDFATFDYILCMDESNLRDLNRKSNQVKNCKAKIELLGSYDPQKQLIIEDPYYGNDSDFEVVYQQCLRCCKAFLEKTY

[13] = Unbound Cmax in plasma of CD-1 mouse at 10 mg/kg, po measured after 8 hrs by LC-MS/MS analysis; type: ADME, organism-based; details: in vivo
[14] = Volume of distribution at steady state in CD-1 mouse plasma at 2 mg/kg, iv measured after 8 hrs by LC-MS/MS analysis; type: ADME, organism-based; details: in vivo
[15] = biological target: T2, Low molecular weight phosphotyrosine protein phosphatase (Rattus norvegicus, UniProt P41498); experiment: Inhibition of N-terminal His-tagged full length rat LMW-PTP expressed in Escherichia coli BL21(DE3)
T2 sequence (P41498 whole entry): T1 sequence (Q9D358 whole entry) with K35N, R65K, K80R, Y158H

[16] = AUC(0 to 8 hrs) in CD-1 mouse plasma at 2 mg/kg, iv measured after 8 hrs by LC-MS/MS analysis; type: ADME, organism-based; parameters: dose 2 mg/kg, time 8 hrs, route iv; details: in vivo
[17] = AUC(0 to 8 hrs) in CD-1 mouse plasma at 10 mg/kg, po measured after 8 hrs by LC-MS/MS analysis; type: ADME, organism-based; parameters: dose 10 mg/kg, time 8 hrs, route po; details: in vivo
[18] = Tmax in Sprague-Dawley rat plasma at 30 mg/kg, po measured after 24 hrs by LC-MS/MS analysis; type: ADME, organism-based; details: in vivo
[19] = Cmax in CD-1 mouse plasma at 2 mg/kg, iv measured after 8 hrs by LC-MS/MS analysis; type: ADME, organism-based; parameters: time 8 hrs, dose 2 mg/kg, route iv
[20] = Half life in CD-1 mouse plasma at 2 mg/kg, iv measured after 8 hrs by LC-MS/MS analysis; type: ADME, organism-based; details: mouse, in vivo, iv, 2 mg/kg, 8 h
[21] = Oral bioavailability in CD-1 mouse plasma at 10 mg/kg measured after 8 hrs by LC-MS/MS analysis; type: ADME, organism-based; details: CD-1, mouse, plasma
[22] = Unbound Cmax in plasma of CD-1 mouse at 2 mg/kg, iv measured after 8 hrs by LC-MS/MS analysis; type: ADME, organism-based; details: in vivo
[23] = Half life in CD-1 mouse plasma at 10 mg/kg, po measured after 8 hrs by LC-MS/MS analysis; type: ADME, organism-based; details: in vivo
[24] = biological target: T3, Low molecular weight phosphotyrosine protein phosphatase (Homo sapiens, UniProt P24666); experiment: Inhibition of His-tagged human LMW-PTP expressed in Escherichia coli BL21 using pNPP as substrate incubated for 10 mins by microplate reader based spectrophotometric analysis
T3 sequence (P24666 whole entry): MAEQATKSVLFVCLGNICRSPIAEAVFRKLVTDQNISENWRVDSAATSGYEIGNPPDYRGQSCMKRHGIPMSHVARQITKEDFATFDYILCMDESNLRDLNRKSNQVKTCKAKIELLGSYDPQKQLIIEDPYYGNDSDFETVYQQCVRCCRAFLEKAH

Chain of CYP3A4 (P08684 whole entry): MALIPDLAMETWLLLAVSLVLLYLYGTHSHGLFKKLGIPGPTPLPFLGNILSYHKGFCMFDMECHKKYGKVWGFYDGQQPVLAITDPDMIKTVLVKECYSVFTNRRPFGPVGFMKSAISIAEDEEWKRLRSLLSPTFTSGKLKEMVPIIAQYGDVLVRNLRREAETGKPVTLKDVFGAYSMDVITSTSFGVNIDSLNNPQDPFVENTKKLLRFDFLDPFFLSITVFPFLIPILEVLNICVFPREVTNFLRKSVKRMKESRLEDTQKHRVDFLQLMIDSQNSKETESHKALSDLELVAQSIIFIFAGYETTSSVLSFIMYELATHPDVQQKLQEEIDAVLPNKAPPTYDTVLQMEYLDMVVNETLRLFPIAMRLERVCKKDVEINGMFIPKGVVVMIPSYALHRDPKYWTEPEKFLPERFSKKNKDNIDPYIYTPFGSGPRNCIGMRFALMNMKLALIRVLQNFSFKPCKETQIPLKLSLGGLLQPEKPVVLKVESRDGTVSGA
Chain of CYP2D6 (P10635 whole entry): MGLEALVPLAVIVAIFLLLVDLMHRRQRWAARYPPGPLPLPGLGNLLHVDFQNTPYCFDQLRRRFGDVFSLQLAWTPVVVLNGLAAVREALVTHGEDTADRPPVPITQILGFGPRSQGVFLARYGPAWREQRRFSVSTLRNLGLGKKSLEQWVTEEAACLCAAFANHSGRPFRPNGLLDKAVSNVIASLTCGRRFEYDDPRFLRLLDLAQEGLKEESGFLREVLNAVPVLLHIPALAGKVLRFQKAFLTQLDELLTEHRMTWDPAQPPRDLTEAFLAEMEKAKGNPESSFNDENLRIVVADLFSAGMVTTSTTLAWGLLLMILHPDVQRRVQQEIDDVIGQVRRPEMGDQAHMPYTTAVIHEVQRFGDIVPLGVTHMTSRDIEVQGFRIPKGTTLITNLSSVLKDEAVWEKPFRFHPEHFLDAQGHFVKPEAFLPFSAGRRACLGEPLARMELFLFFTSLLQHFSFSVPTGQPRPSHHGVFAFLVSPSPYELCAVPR
Chain of CYP2C9 (P11712 whole entry): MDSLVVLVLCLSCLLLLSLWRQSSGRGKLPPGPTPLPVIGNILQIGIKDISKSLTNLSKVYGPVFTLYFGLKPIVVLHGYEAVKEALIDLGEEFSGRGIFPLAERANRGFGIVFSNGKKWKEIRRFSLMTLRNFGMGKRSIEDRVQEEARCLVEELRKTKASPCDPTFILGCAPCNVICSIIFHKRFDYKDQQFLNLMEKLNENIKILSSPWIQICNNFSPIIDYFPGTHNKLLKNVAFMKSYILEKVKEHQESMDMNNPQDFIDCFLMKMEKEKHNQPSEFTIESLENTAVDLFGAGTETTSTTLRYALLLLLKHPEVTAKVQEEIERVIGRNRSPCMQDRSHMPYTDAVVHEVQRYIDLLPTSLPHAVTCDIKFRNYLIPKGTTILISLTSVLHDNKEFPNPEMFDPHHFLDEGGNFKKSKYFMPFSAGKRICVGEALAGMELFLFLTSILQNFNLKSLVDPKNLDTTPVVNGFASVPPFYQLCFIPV

inhibition at 0.05 h (CYP2D6): 5%
Fu [1]: < 0.006
inhibition at 0.05 h (CYP3A4): 9%
inhibition at 10 min (CYP2C9): 69%
solubility [2]: 660 µg/mL (≈ 1890 µM)
remaining at 0.5 h, 4 µM [3]: 54%
remaining at 0.5 h, 4 µM [4]: 17%
remaining at 0.5 h, 4 µM [5]: 61%
Compound: O=C(Nc1nc2ccccc2s1)C(c1ccccc1)S(=O)(=O)O (configuration not stated)

inhibition at 0.05 h (CYP2D6): 1%
AUC [6]: 37.1 µM·h
Cmax [7]: 6.12 µM
Fu [1]: < 0.006
t1/2 [8]: 3 h
fCmax [9]: < 43 nM
inhibition at 0.05 h (CYP3A4): 0%
Cmax [10]: 1.02 µM
IC50 [11]: > 200000 nM
inhibition at 10 min (CYP2C9): 79%
IC50 [12]: 200 nM
fCmax [13]: < 6 nM
Vdss [14]: 3.4 L/kg
solubility [2]: 920 µg/mL (≈ 1990 µM)
remaining at 0.5 h, 4 µM [3]: 34%
remaining at 0.5 h, 4 µM [4]: 50%
IC50 [15]: 300 nM
remaining at 0.5 h, 4 µM [5]: 59%
AUC [16]: 2.09 µM·h
AUC [17]: 5.24 µM·h
Tmax [18]: 2.7 h
Cmax [19]: 4.94 µM
t1/2 [20]: 2 h
bioavailability [21]: 50%
fCmax [22]: < 30 nM
t1/2 [23]: 5.2 h
Compound: Cc1c(Br)cc(NC(=O)C(c2ccccc2)S(=O)(=O)O)cc1Br (configuration not stated)

Compound: CS(=O)(=O)c1ccc2nc(NC(=O)CS(=O)(=O)O)sc2c1
IC50 [24]: 300 nM

Compound: Cc1cc([N+](=O)[O-])c2nc(NC(=O)CS(=O)(=O)O)sc2c1
IC50 [24]: 400 nM

Compound: Cc1c(Br)cc(NC(=O)[C@@H](c2cncs2)S(=O)(=O)O)cc1Br
IC50 [24]: 11400 nM

Compound: O=C(Nc1nccs1)NS(=O)(=O)O
IC50 [24]: 49 nM

Compound: O=C(CS(=O)(=O)O)Nc1nc2ccc(C(F)(F)F)cc2s1
IC50 [24]: 600 nM

Compound: O=C(CS(=O)(=O)O)Nc1cnc(N2CCOCC2)c(Br)c1
IC50 [24]: 1200 nM

Compound: O=C(CS(=O)(=O)O)Nc1ccccc1
IC50 [24]: > 100000 nM

Compound: O=C(CS(=O)(=O)O)Nc1nc2cc([N+](=O)[O-])ccc2s1
IC50 [24]: 400 nM

Compound: O=C(CS(=O)(=O)O)Nc1ncc(-c2ccccc2)s1
IC50 [24]: 1500 nM

Compound: O=C(CS(=O)(=O)O)Nc1nccs1
IC50 [24]: 12200 nM

Compound: O=C(CS(=O)(=O)O)Nc1nc2ccc(C(=O)N3CCCC3)cc2s1
IC50 [24]: 300 nM

Compound: O=C(CS(=O)(=O)O)Nc1cc(Br)cc(C(F)(F)F)c1
IC50 [24]: 5200 nM

Compound: Cc1ccc2nc(NC(=O)CS(=O)(=O)O)sc2c1
IC50 [24]: 1700 nM
